Common to all, as to assay: In vitro cytotoxicity evaluation (cell proliferation inhibition, SRB dye)
Holding throughout (type): cell-based, human
A general note: The SRB assay estimates cell density from bound dye.

Series [1] deals with MCF-7 (HER2 negative to normal). The following applies: MCF7 cells, SRB viable cell count; no 144 h footnote (168-hour treatment group). As for the experimental part:
(§1) The cell proliferation inhibitory activity of the drug and ADCs listed in Table 2 below on cancer cell lines was measured. As the cancer cell lines, commercially available human breast cancer cell lines MCF-7 (HER2 negative to normal), SK-BR3 (HER2 positive), and JIMT-1 (HER2 positive) were used. MMAE was used as the drug, and the ADCs in Table 1 were used as the ADC. Each cancer cell line was seeded in a 96-well plate at 2,500 to 5,000 cells per well for 144-hour treatment group and 1,500 to 3,000 cells per well for 168-hour treatment group, cultured for 24 hours, and then treated with the ADCs and drug at concentrations of 0.00015 to 10.0 nM (4-fold serial dilution) or 0.0015 to 10 nM (3-fold serial dilution). After 144/168 hours, the number of viable cells was quantified using SRB (sulforhodamine B) dye.

For series [2], the system named is SK-BR3 (HER2 positive). The following applies: SK-BR3 cells, SRB viable cell count; no 144 h footnote (168-hour treatment group). As for the experimental part:
as §1

Series [3] relates to JIMT-1 (HER2 positive). To be noted: JIMT-1 cells, SRB viable cell count; no 144 h footnote (168-hour treatment group). The procedure:
as §1

In patent US20220226496A1, “LIGAND-DRUG CONJUGATE INCLUDING LINKER HAVING TRIS STRUCTURE” (LEGOCHEM BIOSCIENCES, INC., priority 2019, published 2022) one finds CC50 data, which are given here for one molecule.

Molecules are shown by their SMILES. Non-standard residues stand in square brackets, D forms with d. Residues, ends and D or L forms follow the SMILES beside them. *: point of attachment. Dolaproine = CO[C@@H]([C@@H]1CCCN1)[C@@H](C)C(=O)O; Dil = CC[C@H](C)[C@H](NC)[C@@H](CC(=O)O)OC; X1 = C[C@@H](N*)[C@@H](O)c1ccccc1; NMeV = CN[C@H](C(=O)O)C(C)C

What is called CC50 is the concentration that lowers cell viability or growth by half. Low values mean greater toxicity to the cells, high ones lower toxicity to the cells. On to `CC[C@H](C)[C@@H]([C@@H](CC(=O)N1CCC[C@H]1[C@H](OC)[C@@H](C)C(=O)N[C@H](C)[C@@H](O)c1ccccc1)OC)N(C)C(=O)[C@@H](NC(=O)[C@@H](NC)C(C)C)C(C)C` [MMAE, monomethyl auristatin E] (H-[NMeV]V[Dil][Dolaproine]-X1), for which the results for the CC50 in series [1], in series [2] and in series [3] were 0.31 nM, 0.12 nM and 0.09 nM, respectively.
